# Data as given in PubChem BioAssay AID248 (DTP/NCI, 2004).
# “And” between values parts separate entries of the source, which are not always exact repeats. Equal entries are not always repeated. Toxic doses and inconclusive results are not listed.
# System: L1210 leukemia ip in BDF1 mice, survival T/C
# Test: NCI In Vivo Anticancer Drug Screen. Data for tumor model L1210 Leukemia (intraperitoneal) in B6D2F1 (BDF1) mice
# Conditions: endpoint: mean survival time, higher = longer survival
# Procedure, shortened: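 Tumor was transplanted into mice, which were then dosed with test compound or vehicle alone. Survival was recorded for each group, and the treated figure was expressed relative to the control figure.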
# [1] = dose: 25.0 mg/kg/injection, schedule: Q01DX009 (ip), vehicle: Klucel (hydroxypropylcellulose) (HPC)
# [2] = dose: 100.0 mg/kg/injection, schedule: Q04DX003 (ip), vehicle: Klucel (hydroxypropylcellulose) (HPC)
# [3] = dose: 200.0 mg/kg/injection, schedule: Q01DX009 (ip), vehicle: Klucel (hydroxypropylcellulose) (HPC)
# [4] = dose: 200.0 mg/kg/injection, schedule: Q04DX003 (ip), vehicle: saline
# [5] = dose: 400.0 mg/kg/injection, schedule: Q04DX003 (ip), vehicle: Klucel (hydroxypropylcellulose) (HPC)
# [6] = dose: 100.0 mg/kg/injection, schedule: Q01DX009 (ip), vehicle: Klucel (hydroxypropylcellulose) (HPC)
# [7] = dose: 200.0 mg/kg/injection, schedule: Q04DX003 (ip), vehicle: Klucel (hydroxypropylcellulose) (HPC)
# [8] = dose: 400.0 mg/kg/injection, schedule: Q01DX009 (ip), vehicle: Klucel (hydroxypropylcellulose) (HPC)
# [9] = dose: 100.0 mg/kg/injection, schedule: Q01DX001 (ip), vehicle: saline
# [10] = dose: 200.0 mg/kg/injection, schedule: Q01DX001 (ip), vehicle: saline
# [11] = dose: 400.0 mg/kg/injection, schedule: Q01DX001 (ip), vehicle: saline
# [12] = dose: 100.0 mg/kg/injection, schedule: Q04DX002 (ip), vehicle: Klucel (hydroxypropylcellulose) (HPC)
# [13] = dose: 200.0 mg/kg/injection, schedule: Q04DX002 (ip), vehicle: Klucel (hydroxypropylcellulose) (HPC)
# [14] = dose: 400.0 mg/kg/injection, schedule: Q04DX002 (ip), vehicle: Klucel (hydroxypropylcellulose) (HPC)
# [15] = dose: 100.0 mg/kg/injection, schedule: Q04DX003 (ip), vehicle: saline
# [16] = dose: 400.0 mg/kg/injection, schedule: Q04DX003 (ip), vehicle: saline
# [17] = dose: 100.0 mg/kg/injection, schedule: Q04DX003 (ip), vehicle: saline with Tween-80
# [18] = dose: 100.0 mg/kg/injection, schedule: Q04DX002 (ip), vehicle: saline with Tween-80
# [19] = dose: 200.0 mg/kg/injection, schedule: Q04DX002 (ip), vehicle: saline with Tween-80
# [20] = dose: 400.0 mg/kg/injection, schedule: Q04DX002 (ip), vehicle: saline with Tween-80
structure (smiles),measurement,setting,value
CC1(C)N=C(N)N=C(N)N1c1ccc(CCCCc2ccc(S(=O)(=O)F)cc2Cl)c(Cl)c1,T/C,"dose: 3.12 mg/kg/injection, schedule: Q01DX009 (ip), vehicle: Klucel (hydroxypropylcellulose) (HPC)",102 % of control
same,T/C,"dose: 3.12 mg/kg/injection, schedule: Q04DX003 (ip), vehicle: Klucel (hydroxypropylcellulose) (HPC)",97 % of control
same,T/C,"dose: 6.25 mg/kg/injection, schedule: Q01DX009 (ip), vehicle: Klucel (hydroxypropylcellulose) (HPC)",100 % of control
same,T/C,"dose: 6.25 mg/kg/injection, schedule: Q01DX009 (ip), vehicle: saline",116 % of control
same,T/C,"dose: 6.25 mg/kg/injection, schedule: Q04DX003 (ip), vehicle: Klucel (hydroxypropylcellulose) (HPC)",105 % of control
same,T/C,"dose: 7.26 mg/kg/injection, schedule: Q01DX009 (ip), vehicle: saline",111 % of control
same,T/C,"dose: 7.26 mg/kg/injection, schedule: Q04DX003 (ip), vehicle: saline",115 % of control
same,T/C,"dose: 10.89 mg/kg/injection, schedule: Q01DX009 (ip), vehicle: saline",117 % of control
same,T/C,"dose: 12.5 mg/kg/injection, schedule: Q01DX009 (ip), vehicle: Klucel (hydroxypropylcellulose) (HPC)",105 % of control
same,T/C,"dose: 12.5 mg/kg/injection, schedule: Q04DX003 (ip), vehicle: Klucel (hydroxypropylcellulose) (HPC)",105 % of control
same,T/C,"dose: 24.0 mg/kg/injection, schedule: Q01DX009 (ip), vehicle: saline with Tween-80",122 % of control
same,T/C,[1],107 % of control and 122 % of control
same,T/C,"dose: 25.0 mg/kg/injection, schedule: Q04DX003 (ip), vehicle: Klucel (hydroxypropylcellulose) (HPC)",115 % of control
same,T/C,"dose: 50.0 mg/kg/injection, schedule: Q04DX003 (ip), vehicle: Klucel (hydroxypropylcellulose) (HPC)",112 % of control
same,T/C,"dose: 75.0 mg/kg/injection, schedule: Q01DX009 (ip), vehicle: saline with Tween-80",98 % of control
same,T/C,"dose: 75.0 mg/kg/injection, schedule: Q01DX009 (ip), vehicle: saline",116 % of control
same,T/C,"dose: 100.0 mg/kg/injection, schedule: Q01DX009 (ip), vehicle: saline",88 % of control
same,T/C,[2],118 % of control
same,T/C,"dose: 150.0 mg/kg/injection, schedule: Q01DX009 (ip), vehicle: saline",96 % of control
same,T/C,"dose: 150.0 mg/kg/injection, schedule: Q04DX003 (ip), vehicle: saline with Tween-80",117 % of control
same,T/C,[3],109 % of control
same,T/C,[4],120 % of control
same,T/C,"dose: 300.0 mg/kg/injection, schedule: Q01DX009 (ip), vehicle: saline",98 % of control
same,T/C,"dose: 300.0 mg/kg/injection, schedule: Q04DX003 (ip), vehicle: Klucel (hydroxypropylcellulose) (HPC)",152 % of control
same,T/C,"dose: 300.0 mg/kg/injection, schedule: Q04DX003 (ip), vehicle: saline",152 % of control
same,T/C,[5],113 % of control
same,T/C,"dose: 450.0 mg/kg/injection, schedule: Q04DX003 (ip), vehicle: saline",111 % of control
O=C(Nc1ccc(Cl)c(Cl)c1)Oc1ccc2ccccc2c1,T/C,[6],90 % of control
same,T/C,[2],104 % of control
same,T/C,[3],101 % of control
same,T/C,[7],90 % of control
same,T/C,[8],95 % of control
same,T/C,[5],90 % of control
O=C1C=CC(=O)N1Cc1ccncc1,T/C,[9],101 % of control
same,T/C,[10],95 % of control
same,T/C,[11],95 % of control
C1CNCCNCCCNCCNC1,T/C,"dose: 12.5 mg/kg/injection, schedule: Q04DX002 (ip), vehicle: saline with Tween-80",93 % of control
same,T/C,"dose: 25.0 mg/kg/injection, schedule: Q04DX002 (ip), vehicle: saline with Tween-80",101 % of control
same,T/C,"dose: 50.0 mg/kg/injection, schedule: Q04DX002 (ip), vehicle: saline with Tween-80",90 % of control
O=P(c1cccc(C(F)(F)F)c1)(c1cccc(C(F)(F)F)c1)c1cccc(C(F)(F)F)c1.O=P(c1cccc(C(F)(F)F)c1)(c1cccc(C(F)(F)F)c1)c1cccc(C(F)(F)F)c1.[Cl][Sn]([Cl])([Cl])[Cl],T/C,[12],100 % of control
same,T/C,[13],96 % of control
same,T/C,[14],86 % of control
COC(=O)c1cccc([N+](=O)[O-])c1,T/C,[9],96 % of control
same,T/C,[10],94 % of control
same,T/C,[11],100 % of control
CN(C)NC(=O)NCCCl,T/C,[15],106 % of control
same,T/C,[4],105 % of control
same,T/C,[16],108 % of control
COc1cc(C)c(Cl)c(C)c1C#CC(=O)O,T/C,"dose: 75.0 mg/kg/injection, schedule: Q01DX009 (ip), vehicle: Klucel (hydroxypropylcellulose) (HPC)",101 % of control
same,T/C,"dose: 150.0 mg/kg/injection, schedule: Q01DX009 (ip), vehicle: Klucel (hydroxypropylcellulose) (HPC)",100 % of control
CN(C)c1ccc(/C=C2\C=Cc3ccccc32)cc1Br,T/C,[17],101 % of control
CCOC(=O)c1ccc(NC(=O)N2CCCCC2C)cc1 (centres undefined),T/C,"dose: 100.0 mg/kg/injection, schedule: Q01DX001 (ip), vehicle: saline with Tween-80",93 % of control
same,T/C,"dose: 100.0 mg/kg/injection, schedule: Q01DX009 (ip), vehicle: saline with Tween-80",104 % of control
same,T/C,[18],97 % of control and 99 % of control
same,T/C,[17],88 % of control
same,T/C,"dose: 200.0 mg/kg/injection, schedule: Q01DX001 (ip), vehicle: saline with Tween-80",89 % of control
same,T/C,"dose: 200.0 mg/kg/injection, schedule: Q01DX009 (ip), vehicle: saline with Tween-80",104 % of control
same,T/C,[19],92 % of control and 100 % of control
same,T/C,"dose: 200.0 mg/kg/injection, schedule: Q04DX003 (ip), vehicle: saline with Tween-80",96 % of control
same,T/C,"dose: 400.0 mg/kg/injection, schedule: Q01DX001 (ip), vehicle: saline with Tween-80",91 % of control
same,T/C,"dose: 400.0 mg/kg/injection, schedule: Q01DX009 (ip), vehicle: saline with Tween-80",97 % of control
same,T/C,[20],94 % of control and 99 % of control
same,T/C,"dose: 400.0 mg/kg/injection, schedule: Q04DX003 (ip), vehicle: saline with Tween-80",96 % of control
CC1(C)C2CCC1(C)C(NCc1cc(Cl)cc(Cl)c1O)C2 (centres undefined),T/C,[2],92 % of control
same,T/C,[7],103 % of control
same,T/C,[5],98 % of control
CC12CCC3c4ccc([O-])c([N+]#N)c4CCC3C1CCC2=O (centres undefined),T/C,[1],103 % of control
same,T/C,"dose: 50.0 mg/kg/injection, schedule: Q01DX009 (ip), vehicle: Klucel (hydroxypropylcellulose) (HPC)",87 % of control
CCCCCCCCCCCCCCCC[N+](C)(C)Cc1ccccc1,T/C,"dose: 0.5 mg/kg/injection, schedule: Q04DX002 (ip), vehicle: Klucel (hydroxypropylcellulose) (HPC)",98 % of control
same,T/C,"dose: 1.0 mg/kg/injection, schedule: Q04DX002 (ip), vehicle: Klucel (hydroxypropylcellulose) (HPC)",103 % of control
same,T/C,"dose: 2.0 mg/kg/injection, schedule: Q04DX002 (ip), vehicle: Klucel (hydroxypropylcellulose) (HPC)",103 % of control
NC(=O)c1c[n+]([O-])ccn1,T/C,"dose: 50.0 mg/kg/injection, schedule: Q04DX003 (ip), vehicle: saline",108 % of control
same,T/C,[9],96 % of control
same,T/C,[15],101 % of control
same,T/C,[10],98 % of control
same,T/C,[4],113 % of control
C1=CC=CN(c2ccccc2)C=C1,T/C,[6],108 % of control
same,T/C,[3],104 % of control
COc1ccccc1C(=S)N1CCOCC1,T/C,[2],91 % of control
same,T/C,[7],96 % of control
same,T/C,[5],99 % of control
COc1ccccc1NC(=S)Nc1ccccc1,T/C,[12],97 % of control
same,T/C,[13],101 % of control
same,T/C,[14],108 % of control
CC(CC#N)OC(=O)c1cccc([N+](=O)[O-])c1 (centres undefined),T/C,[6],91 % of control
same,T/C,[2],115 % of control
same,T/C,[3],93 % of control
same,T/C,[7],93 % of control
same,T/C,[8],98 % of control
same,T/C,[5],105 % of control
COc1ccc(C(=O)/C=C/c2cccc3ccccc23)cc1,T/C,[18],86 % of control
same,T/C,[19],86 % of control
same,T/C,[20],86 % of control
O=c1oc2c(-c3ccccc3)cccc2c(O)c1-c1ccccc1,T/C,"dose: 25.0 mg/kg/injection, schedule: Q04DX003 (ip), vehicle: saline with Tween-80",96 % of control
same,T/C,"dose: 50.0 mg/kg/injection, schedule: Q04DX003 (ip), vehicle: saline with Tween-80",101 % of control
same,T/C,[17],93 % of control
same,T/C,[15],95 % of control
same,T/C,[4],93 % of control
same,T/C,[16],93 % of control
